Data reported in patent US20200199681A1, “MDA-7 CANCER THERAPIES AND METHODS OF DETECTING BIOMOLECULES” (VIRGINIA COMMONWEATLH UNIVERSITY, priority 2016, published 2020).

Key:
[1] = system: miR-221; assay: level of miR-221 by real time PCR (RQ-PCR, taqman probe); assay type: cell-based, human; conditions: for miR-221 levels: low doses alone: ATO 1 μM, hydrogen peroxide 10 μM, pyocyanin 50 μM
[2] = system: cancer cells; conditions: cited from earlier work
[3] = system: U2OS cells; conditions: cited from earlier work
[4] = system: non-cancerous immortalized NOK cells; conditions: cited from earlier work
[5] = system: Hela and DU-145 cells; conditions: cited from earlier work

Molecule: CC(=O)N[C@@H](CS)C(=O)O [NAC, N-acetyl cysteine]
- effect on down regulation of miR-221 by ROS inducer with Ad.mda-7 ([1]; MDA-MB-231 cells, pretreatment for 12 hours): abrogated down regulation of miR-221
- cell death mediated by mda-7/IL-24 [2]: inhibits

Molecule: C[S+]([O-])c1ccc(-c2nc(-c3ccncc3)c(-c3ccc(F)cc3)[nH]2)cc1 (stereo not drawn) [SB203580]
- Ad.mda-7-induced apoptosis [2]: inhibits

Molecule: OO [hydrogen peroxide]
- miR-221 levels ([1]; MDA-MB-231 cells): did not alter

Molecule: Cn1c2cccc(=O)c-2nc2ccccc21 [pyocyanin]
- miR-221 levels ([1]; MDA-MB-231 cells): did not alter

Molecule: Arsenic trioxide
- miR-221 levels ([1]; MDA-MB-231 cells): did not alter

B1: Full length MDA-7/IL-24: full-length transcript with all 7 exons (protein, UniProt Q13007 1-206, looked up)
chain: MNFQQRLQSLWTLARPFCPPLLATASQMQMVVLPCLGFTLLLWSQVSGAQGQEFHFGPCQVKGVVPQKLWEAFWAVKDTMQAQDNITSARLLQQEVLQNVSDAESCYLVHTLLEFYLKTVFKNYHNRTVEVRTLKSFSTLANNFVLIVSQLQPSQENEMFSIRDSAHRRFLLFRRAFKQLDVEAALTKALGEVDILLTWMQKFYKL
modifications: full-length
notes: full-length transcript with all 7 exons
- U2OS cell viability [3]: capable of reducing U2OS cell viability
- viability of NOK cells [4]: no effect

B2: His-MDA-7: purified recombinant His tagged MDA-7/IL-24 protein (protein, UniProt Q13007 52-206, looked up)
Interleukin-24: QEFHFGPCQVKGVVPQKLWEAFWAVKDTMQAQDNITSARLLQQEVLQNVSDAESCYLVHTLLEFYLKTVFKNYHNRTVEVRTLKSFSTLANNFVLIVSQLQPSQENEMFSIRDSAHRRFLLFRRAFKQLDVEAALTKALGEVDILLTWMQKFYKL
modifications: His tag
notes: purified recombinant His tagged MDA-7/IL-24 protein
- miR-221 expression ([1]; A549 cells (lack cognate receptor pairs)): remained unchanged
- miR-221 expression ([1]; A549 cells overexpressing IL-20R2 or IL-22R1): sensitive to miR-221 down regulation
- miR-221 expression ([1]; DU-145 cells (both receptor types)): decreased

B3: M1: MDA-7/IL-24 deletion mutant, signal peptide deleted (protein, UniProt Q13007 52-206, looked up)
Interleukin-24: B2 Interleukin-24
modifications: signal peptide deleted
notes: MDA-7/IL-24 deletion mutant, signal peptide deleted
- tumor inhibitory effects of MDA-7/IL-24 [5]: did not disrupt the tumor inhibitory effects
